Test results as given in patent US9573913B2, “Cathepsin cysteine protease inhibitors” (Merck Sharp & Dohme Corp., priority 2013, dated 2017).

What was measured:
[1] = molecular target: T1, human cathepsin F (Homo sapiens, UniProt Q9UBX1); assay: Cathepsin F assay (hCat F); assay type: biochemical; details: Z-Phe-Arg-AMC substrate, pH 5.5, 15 min preincubation; read-out: hCat F (IP (nM))
T1 sequence (Q9UBX1 271-484): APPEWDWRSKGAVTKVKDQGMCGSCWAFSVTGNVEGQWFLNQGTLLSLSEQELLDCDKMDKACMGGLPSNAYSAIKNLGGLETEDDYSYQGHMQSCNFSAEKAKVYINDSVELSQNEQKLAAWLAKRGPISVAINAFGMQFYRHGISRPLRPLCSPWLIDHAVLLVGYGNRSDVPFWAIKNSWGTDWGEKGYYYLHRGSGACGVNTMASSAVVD
Experimental: Cathepsin F assay (hCat F)
Serial dilutions (1/3) from 500 μM down to 0.025 μM of test compounds were prepared in dimethyl sulfoxide (DMSO). Then 0.5 μL of DMSO from each dilution were added to 18.75 μL of assay buffer (MES, 50 mM (pH 5.5); EDTA, 2.5 mM; DTT, 2.5 mM and 10% DMSO) containing human cathepsin F (10 nM) in assay buffer solution. The assay solutions were mixed for 5-10 seconds on a shaker plate and incubated for 15 minutes at room temperature. Z-Phe-Arg-AMC (8 μM) in 6.25 μL of assay buffer was added to the assay solutions. Hydrolysis of the coumarin leaving group (AMC) was followed by spectrofluorometry (Exλ=360 nm; Emλ=460 nm) for 20 minutes. Percent of inhibition were calculated by fitting experimental values to standard mathematical model for dose response curve.

[2] = molecular target: human cathepsin K (UniProt P43236); assay: Cathepsin K Assay (hrbCat K); assay type: biochemical; details: Z-Leu-Arg-AMC substrate, pH 5.5, 15 min preincubation; read-out: hrbCat K (IP (nM))
Procedure, shortened: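 Human cathepsin K (0.4 nM) was preincubated 15 min at room temperature with compound in 50 mM MES pH 5.5, 2.5 mM EDTA, 2.5 mM DTT and 10% DMSO. Inhibition was fitted to a dose-response model.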

Row | IC50 [1] [nM] | IC50 [2] [nM] | Structure (SMILES)
1 | 4500 | 3.7 | C[C@@H](C#N)NC(=O)[C@@H]1C[C@@H](F)CC[C@H]1c1nc(C2CC(F)C2)sc1-c1ccc(N2CCS(=O)(=O)CC2)cc1 (single isomer, unassigned) [Example 236, (1R,2R,5S)-N-((S)-1-cyanoethyl)-2-(5-(4-(1,1-dioxidothiomorpho-lino)phenyl)-2-((1R,3R or 1S,3S)-(3-fluorocyclobutyl)thiazol-4-yl)-5-fluorocyclohexane-carboxamide]
2 | 1000 | 5.8 | N#CC1(NC(=O)[C@@H]2CCCC[C@H]2c2nc(C3CC(F)(F)C3)sc2-c2ccc(N3CCS(=O)(=O)CC3)cc2)CC1 [Compound 1, (1R,2R)-N-(1-cyanocyclopropyl)-2-(2-(3,3-difluorocyclobutyl)-5-(4-(1,1-dioxidothiomorpholino)phenyl)thiazol-4-yl)cyclohexanecarboxamide]
3 | 3330 | 1.9 | N#CC1(NC(=O)[C@@H]2CCCC[C@H]2c2nc(-c3ccc(F)cc3)sc2-c2ccc(N3CCS(=N)(=O)CC3)cc2)CC1 [Compound 5, (1R,2R)-N-(1-Cyanocyclopropyl)-2-(2-(4-fluorophenyl)-5-(4-(1-imino-1-oxidothiomorpholino)phenyl)thiazol-4-yl)cyclohexanecarboxamide]
4 | 1000 | 3.6 | N#CC1(NC(=O)[C@@H]2CCCC[C@H]2c2nc(N3CCC(F)(F)CC3)sc2-c2ccc(N3CCS(=O)(=O)CC3)cc2)CC1 [Compound 6, (1R,2R)-N-(1-cyanocyclopropyl)-2-(2-(4,4-difluoropiperidin-1-yl)-5-(4-(1,1-dioxidothiomorpholino)phenyl)thiazol-4-yl)cyclohexanecarboxamide]
5 | 1920 | 0.9 | N#CC1(NC(=O)[C@@H]2C[C@@H](F)CC[C@H]2c2nc(-c3cncc(F)c3)sc2-c2ccc(N3CCS(=O)(=O)CC3)cc2)CC1 [Compound 7, (1R,2R,5S)-N-(1-cyanocyclopropyl)-2-(5-(4-(1,1-dioxidothiomorpholino)phenyl)-2-(5-fluoropyridin-3-yl)thiazol-4-yl)-5-fluorocyclohexanecarboxamide]
6 | 1100 | 1.3 | C[C@@H](C#N)NC(=O)[C@@H]1C[C@@H](F)CC[C@H]1c1nc(-c2ccc(F)cn2)sc1-c1ccc(N2CCS(=O)(=O)CC2)cc1 [Compound 8, (1R,2R,5S)-N—((S)-1-Cyanoethyl)-2-(5-(4-(1,1-dioxidothiomorpholino)phenyl)-2-(5-fluoropyridin-2-yl)thiazol-4-yl)-5-fluorocyclohexanecarboxamide]
7 | ≥ 10000 | 44.1 | Cc1nc([C@@H]2CC[C@H](F)C[C@H]2C(=O)NC2(C#N)CC2)c(-c2ccc(N3CCOCC3)cc2)s1 [Compound 9, (1R,2R,5S)-N-(1-cyanocyclopropyl)-5-fluoro-2-(2-methyl-5-(4-morpholinophenyl)thiazol-4-yl)cyclohexanecarboxamide]
8 | 1110 | 2.5 | N#CC1(NC(=O)[C@@H]2CCCC[C@H]2c2nc(-c3ccc(F)cc3)oc2-c2ccc(N3CCS(=O)(=O)CC3)cc2)CC1 [Example 10, (1R,2R)-N-(1-cyanocyclopropyl)-2-(5-(4-(1,1-dioxidothiomorpholino)phenyl)-2-(4-fluorophenyl)oxazol-4-yl)cyclohexanecarboxamide]
9 | ≥ 10000 | 3 | N#CC1(NC(=O)[C@@H]2CCCC[C@H]2c2nc(C3CCOCC3)sc2-c2ccc(N3CCS(=O)(=O)CC3)cc2)CC1 [Example 11, (1R,2R)-N-(1-Cyanocyclopropyl)-2-(5-(4-(1,1-dioxidothiomorpholino)phenyl)-2-(tetrahydro-2H-pyran-4-yl)thiazol-4-yl)cyclohexanecarboxamide]
10 | 5170 | 17 | Cc1nc([C@@H]2CCCC[C@H]2C(=O)NCC#N)c(-c2ccc(C(=O)N3CCOCC3)cc2)s1 [Example 12, (1R,2R)-N-(cyanomethyl)-2-(2-methyl-5-(4-(morpholine-4-carbonyl)phenyl)thiazol-4-yl)cyclohexanecarboxamide]
11 | ≥ 10000 | 6 | CC(C)(C)c1nc([C@@H]2CC[C@H](F)C[C@H]2C(=O)NC2(C#N)CC2)c(-c2ccc(N3CCS(=N)(=O)CC3)cc2)o1 [Example 13, (1R,2R,5S)-2-(2-(tert-Butyl)-5-(4-(1-imino-1-oxidothiomorpholino)phenyl)oxazol-4-yl)-N-(1-cyanocyclopropyl)-5-fluorocyclohexanecarboxamide]
12 | ≥ 10000 | 5.2 | CN=S1(=O)CCN(c2ccc(-c3oc(C(C)(C)C)nc3[C@@H]3CC[C@H](F)C[C@H]3C(=O)NC3(C#N)CC3)cc2)CC1 [Example 14, (1R,2R,5S)-2-(2-(tert-Butyl)-5-(4-(1-(methylimino)-1-oxidothiomorpholino)phenyl)oxazol-4-yl)-N-(1-cyanocyclopropyl)-5-fluorocyclohexanecarboxamide]
13 | 124 | 2.4 | CC(C)OC(=O)N1CC(c2ccc(-c3sc(-c4ccc(F)cc4)nc3[C@@H]3CCCC[C@H]3C(=O)NC3(C#N)CC3)cc2)C1 [Example 15, Isopropyl 3-(4-(4-((1R,2R)-2-((1-cyanocyclopropyl)carbamoyl)cyclohexyl)-2-(4-fluorophenyl)thiazol-5-yl)phenyl)azetidine-1-carboxylate]
14 | 931 | 2.5 | N#CC1(NC(=O)[C@@H]2CCCC[C@H]2c2nc(Oc3ccccc3)sc2-c2ccc(N3CCS(=O)(=O)CC3)cc2)CC1 [Example 16, (1R,2R)-N-(1-Cyanocyclopropyl)-2-(5-(4-(1,1-dioxidothiomorpholino)phenyl)-2-phenoxythiazol-4-yl)cyclohexanecarboxamide]
15 | 1140 | 2 | Cc1nc([C@@H]2CCCC[C@H]2C(=O)NCC#N)c(-c2ccc(N3CCS(=O)(=O)CC3)cc2)s1 [Example 17, (1R,2R)-N-(cyanomethyl)-2-(5-(4-(1,1-dioxidothiomorpho-lino)phenyl)-2-methylthiazol-4-yl)cyclohexane-carboxamide]
16 | 564 | 1.2 | N#CCNC(=O)[C@@H]1CCCC[C@H]1c1nc(C2CC2)sc1-c1ccc(N2CCS(=O)(=O)CC2)cc1 [Example 18, (1R,2R)-N-(cyanomethyl)-2-(2-cyclopropyl-5-(4-(1,1-dioxidothiomorpho-lino)phenyl)thiazol-4-yl)cyclohexane-carboxamide]
17 | 851 | 0.7 | CC(C)(C)c1nc([C@@H]2CCCC[C@H]2C(=O)NCC#N)c(-c2ccc(N3CCS(=O)(=O)CC3)cc2)s1 [Example 19, (1R,2R)-2-(2-(tert-butyl)-5-(4-(1,1-dioxidothiomorpho-lino)phenyl)thiazol-4-yl)-N-(cyanomethyl)cyclo-hexanecarboxamide]
18 | 8630 | 2.7 | CC(C)(C)c1nc([C@@H]2CCCC[C@H]2C(=O)NC2(C#N)CC2)c(-c2ccc(N3CCS(=O)(=O)CC3)cc2)s1 [Example 20, (1R,2R)-2-(2-(tert-butyl)-5-(4-(1,1-dioxidothiomorpho-lino)phenyl)thiazol-4-yl)-N-(1-cyanocyclopropyl) cyclohexanecarbox-amide]
19 | 314 | 1.6 | N#CC1(NC(=O)[C@@H]2CC(F)(F)CC[C@H]2c2nc(CC(F)(F)F)sc2-c2ccc(N3CCS(=O)(=O)CC3)cc2)CC1 [Example 21, (1R,2R)-N-(1-cyanocyclopropyl)-2-(5-(4-(1,1-dioxidothiomorpho-lino)phenyl)-2-(2,2,2-trifluoroethyl)thia-zol-4-yl)-5,5-difluorocyclohexane-carboxamide]
20 | 8520 | 6.6 | N#CC1(NC(=O)[C@@H]2CCCC[C@H]2c2nc(CC(F)(F)F)sc2-c2ccc(N3CCS(=O)(=O)CC3)cc2)CC1 [Example 22, (1R,2R)-N-(1-cyanocyclopropyl)-2-(5-(4-(1,1-dioxidothiomorpho-lino)phenyl)-2-(2,2,2-trifluoroethyl)thia-zol-4-yl)cyclohexane-carboxamide]
21 | 223 | 1.1 | N#CC1(NC(=O)[C@@H]2CC(F)(F)CC[C@H]2c2nc(CCC(F)(F)F)sc2-c2ccc(N3CCS(=O)(=O)CC3)cc2)CC1 [Example 23, (1R,2R)-N-(1-cyanocyclopropyl)-2-(5-(4-(1,1-dioxidothiomorpho-lino)phenyl)-2-(3,3,3-trifluoropropyl)thia-zol-4-yl)-5,5-difluorocyclohexane-carboxamide]
22 | 2230 | 5.6 | N#CC1(NC(=O)[C@@H]2CCCC[C@H]2c2nc(CCC(F)(F)F)sc2-c2ccc(N3CCS(=O)(=O)CC3)cc2)CC1 [Example 24, (1R,2R)-N-(1-cyanocyclopropyl)-2-(5-(4-(1,1-dioxidothiomorpho-lino)phenyl)-2-(3,3,3-trifluoropropyl)thia-zol-4-yl)cyclohexane-carboxamide]
